This passage reports IC50 results from patent US20080076751A1, “Azetidinone Derivatives and Methods of Use Thereof” (priority 2006, published 2008).

T1 sequence (O35433 whole entry): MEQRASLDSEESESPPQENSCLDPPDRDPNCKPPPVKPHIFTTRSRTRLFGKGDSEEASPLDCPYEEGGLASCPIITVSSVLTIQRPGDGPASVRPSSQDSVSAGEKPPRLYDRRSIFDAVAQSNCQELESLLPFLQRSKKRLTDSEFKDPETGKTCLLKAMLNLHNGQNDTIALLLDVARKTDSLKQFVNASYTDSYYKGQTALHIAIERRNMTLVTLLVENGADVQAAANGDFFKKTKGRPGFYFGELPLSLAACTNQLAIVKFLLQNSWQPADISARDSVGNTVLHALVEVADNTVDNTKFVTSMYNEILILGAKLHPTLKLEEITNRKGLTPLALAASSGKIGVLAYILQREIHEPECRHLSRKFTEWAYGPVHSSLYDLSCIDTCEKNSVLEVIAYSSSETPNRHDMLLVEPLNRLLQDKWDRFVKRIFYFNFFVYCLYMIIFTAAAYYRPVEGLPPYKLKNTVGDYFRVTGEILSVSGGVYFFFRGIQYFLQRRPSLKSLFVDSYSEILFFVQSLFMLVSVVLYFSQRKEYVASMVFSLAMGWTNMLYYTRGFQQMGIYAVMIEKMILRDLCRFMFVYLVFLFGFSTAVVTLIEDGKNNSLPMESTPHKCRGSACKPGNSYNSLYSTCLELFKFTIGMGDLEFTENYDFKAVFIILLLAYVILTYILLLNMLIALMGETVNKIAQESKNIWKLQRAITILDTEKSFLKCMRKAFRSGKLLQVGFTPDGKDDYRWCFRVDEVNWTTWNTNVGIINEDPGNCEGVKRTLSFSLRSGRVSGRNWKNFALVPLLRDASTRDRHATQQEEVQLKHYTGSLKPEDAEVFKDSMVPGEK

The first assay has as its target T1, TRPV1 (VR1) (Rattus norvegicus, UniProt O35433).
T1 construct: expressed in transfected cells; host or cells: HEK293-TetOFF, expression induced by withdrawing doxycycline
Put plainly: TRPV1 screening assay (FLIPR, Fluo-4 calcium), capsaicin stimulation. It is filed as cell-based. The conditions noted are these: FLIPR, HEK293-TetOFF-TRPV1, capsaicin 50 nM final; read-out: VR1 flipr CAPSAICIN IC50. The source says:
• 1) Cell line: HEK293-Tet^OFF-TRPV1 • 2) Media: MEM (Invitrogen) • 3) 10% Tet-FBS (Clontech #8630-1) • 4) Fungizone (Gibe #15290-018 (100X)) • 5) Penn/Strep (Gibco #15140-122 (100X)) • 6) Geneticin (Gibco #10131-027 (100X)) • 7) Hygromycin (Clontech #8057-1) • 8) Doxycycline (Clontech #8634-1) • 9) Trypsin/EDTA (Gibco #25200-056) • 10) 100 mm cell culture plates (Falcon #3003) • 11) 96-well poly-D-lysine plates (Fisher #08-774-256) • 12) Hank's Balanced Salt Solution (HBSS) (GIBCO #14025-092) • 13) HEPES Buffer (GIBCO #15630-080) • 14) 30% BSA (Research Organics #1334A) • 15) Probenecid (Sigma P-8761) • 16) Fluo-4, AM (50 μg) (Molecular Probes F-23917) • 17) Pluronic F-127 20% (Molecular Probes P-3000). • 18) capsazepine (Sigma C-191) • 19) capsaicin (Sigma M-2028) • 20) compound plates (NUNC #442587) • 21) black pipet tips 96-well FLIPR (Robbins Scientific 1043-24-0) • 22) Additional reagents available from Fisher: methanol, DMSO, NaOH Reagent Preparation: 1) Cells: HEK293-Tet^OFF-TRPV11
• and Doxycycline 2.5 μg/mL final (from a 1000× stock in PBS) • Cells must be fed and/or split every 2-3 days (to maintain transcriptional repression with Doxycycline). • Must be split no more than 1:5 (50-75% confluency) to maintain growth and viability. • Grown on regular tissue culture plates (e.g Falcon 3003-100 mm) • Split cells via Trypsin/EDTA: incubate with trypsin at room temperature no longer than 5 minutes (HEK293 cells have a tendency to ball up if over trypsinized). • Two days prior to assay, the cells are split into 96-well plates in cell media in the absence of doxycycline at a concentration of 40,000 cells/well in a volume of 200 μL. 2) FLIPR buffer is prepared fresh:
Add 5 mL of Probenecid Solution, prepared as follows: 710 mg of probenecid (Sigma P-8761) is solubilized in 5 mL of 1N NaOH, 5 mL of above buffer is added for final volume of 10 mL. (of which 5 mL goes back into FLIPR buffer)
Combine 42 μL of dye mixture with 11 mL of FLIPR buffer/96-well plate.
Stock solution of 0.1 M capsaicin is prepared in MeOH (50 mg+1.6 mL MeOH). Store 50 μL aliquots at −80° C.
For assay: • a) Dilute stock by adding 0.8 μL into 1 mL of MeOH (final=80 uM). • b) Add 50 μL of diluted stock to 20 mL of FLIPR buffer (final=0.2 uM) • c) Agonist solution is added 150 μL/well to 96-well plate. • d) Final agonist concentration on cells will be 50 nM. […] Laser is adjusted upwards for an average signal≧10,000/well and less than 10% variability. 7) Compound addition conditions are as follows: • FLIPR setup (dual sequence parameters): • Sequence 1: • First interval 1 sec/60 counts • Second interval 6 sec/50 counts • Fluid addition=50 μL • Pipettor height 110 μL • Dispense Speed=30 μL/sec • Sequence 2: • Second interval 1 sec/60 counts • Second interval 6 sec/40 counts • Fluid addition=50 μL • Pipettor height=140 μL • Dispense Speed=50 μL/sec Data Analysis: • 1) Data from both additions is reported as Max-Min for each well
`CC(C)(C)c1ccc(NC(=O)N2CCC3(CC2)C(=O)N(c2ccccn2)C3c2ccccc2)cc1` (stereo not drawn): the IC50 stood at 1 nM.

The same assay, now with this note: reference antagonist in reagent preparation; read-out: IC50 of competitive antagonist capsazepine.
For `Oc1cc2c(cc1O)CN(C(=S)NCCc1ccc(Cl)cc1)CCC2` [capsazepine, reference compound], the half-inhibitory concentration (IC50) was about 500 nM.

Another assay deals with T2, human CaV3.2 (Homo sapiens, UniProt O95180).
T2 construct: expressed in transfected cells
T2 sequence (O95180 whole entry): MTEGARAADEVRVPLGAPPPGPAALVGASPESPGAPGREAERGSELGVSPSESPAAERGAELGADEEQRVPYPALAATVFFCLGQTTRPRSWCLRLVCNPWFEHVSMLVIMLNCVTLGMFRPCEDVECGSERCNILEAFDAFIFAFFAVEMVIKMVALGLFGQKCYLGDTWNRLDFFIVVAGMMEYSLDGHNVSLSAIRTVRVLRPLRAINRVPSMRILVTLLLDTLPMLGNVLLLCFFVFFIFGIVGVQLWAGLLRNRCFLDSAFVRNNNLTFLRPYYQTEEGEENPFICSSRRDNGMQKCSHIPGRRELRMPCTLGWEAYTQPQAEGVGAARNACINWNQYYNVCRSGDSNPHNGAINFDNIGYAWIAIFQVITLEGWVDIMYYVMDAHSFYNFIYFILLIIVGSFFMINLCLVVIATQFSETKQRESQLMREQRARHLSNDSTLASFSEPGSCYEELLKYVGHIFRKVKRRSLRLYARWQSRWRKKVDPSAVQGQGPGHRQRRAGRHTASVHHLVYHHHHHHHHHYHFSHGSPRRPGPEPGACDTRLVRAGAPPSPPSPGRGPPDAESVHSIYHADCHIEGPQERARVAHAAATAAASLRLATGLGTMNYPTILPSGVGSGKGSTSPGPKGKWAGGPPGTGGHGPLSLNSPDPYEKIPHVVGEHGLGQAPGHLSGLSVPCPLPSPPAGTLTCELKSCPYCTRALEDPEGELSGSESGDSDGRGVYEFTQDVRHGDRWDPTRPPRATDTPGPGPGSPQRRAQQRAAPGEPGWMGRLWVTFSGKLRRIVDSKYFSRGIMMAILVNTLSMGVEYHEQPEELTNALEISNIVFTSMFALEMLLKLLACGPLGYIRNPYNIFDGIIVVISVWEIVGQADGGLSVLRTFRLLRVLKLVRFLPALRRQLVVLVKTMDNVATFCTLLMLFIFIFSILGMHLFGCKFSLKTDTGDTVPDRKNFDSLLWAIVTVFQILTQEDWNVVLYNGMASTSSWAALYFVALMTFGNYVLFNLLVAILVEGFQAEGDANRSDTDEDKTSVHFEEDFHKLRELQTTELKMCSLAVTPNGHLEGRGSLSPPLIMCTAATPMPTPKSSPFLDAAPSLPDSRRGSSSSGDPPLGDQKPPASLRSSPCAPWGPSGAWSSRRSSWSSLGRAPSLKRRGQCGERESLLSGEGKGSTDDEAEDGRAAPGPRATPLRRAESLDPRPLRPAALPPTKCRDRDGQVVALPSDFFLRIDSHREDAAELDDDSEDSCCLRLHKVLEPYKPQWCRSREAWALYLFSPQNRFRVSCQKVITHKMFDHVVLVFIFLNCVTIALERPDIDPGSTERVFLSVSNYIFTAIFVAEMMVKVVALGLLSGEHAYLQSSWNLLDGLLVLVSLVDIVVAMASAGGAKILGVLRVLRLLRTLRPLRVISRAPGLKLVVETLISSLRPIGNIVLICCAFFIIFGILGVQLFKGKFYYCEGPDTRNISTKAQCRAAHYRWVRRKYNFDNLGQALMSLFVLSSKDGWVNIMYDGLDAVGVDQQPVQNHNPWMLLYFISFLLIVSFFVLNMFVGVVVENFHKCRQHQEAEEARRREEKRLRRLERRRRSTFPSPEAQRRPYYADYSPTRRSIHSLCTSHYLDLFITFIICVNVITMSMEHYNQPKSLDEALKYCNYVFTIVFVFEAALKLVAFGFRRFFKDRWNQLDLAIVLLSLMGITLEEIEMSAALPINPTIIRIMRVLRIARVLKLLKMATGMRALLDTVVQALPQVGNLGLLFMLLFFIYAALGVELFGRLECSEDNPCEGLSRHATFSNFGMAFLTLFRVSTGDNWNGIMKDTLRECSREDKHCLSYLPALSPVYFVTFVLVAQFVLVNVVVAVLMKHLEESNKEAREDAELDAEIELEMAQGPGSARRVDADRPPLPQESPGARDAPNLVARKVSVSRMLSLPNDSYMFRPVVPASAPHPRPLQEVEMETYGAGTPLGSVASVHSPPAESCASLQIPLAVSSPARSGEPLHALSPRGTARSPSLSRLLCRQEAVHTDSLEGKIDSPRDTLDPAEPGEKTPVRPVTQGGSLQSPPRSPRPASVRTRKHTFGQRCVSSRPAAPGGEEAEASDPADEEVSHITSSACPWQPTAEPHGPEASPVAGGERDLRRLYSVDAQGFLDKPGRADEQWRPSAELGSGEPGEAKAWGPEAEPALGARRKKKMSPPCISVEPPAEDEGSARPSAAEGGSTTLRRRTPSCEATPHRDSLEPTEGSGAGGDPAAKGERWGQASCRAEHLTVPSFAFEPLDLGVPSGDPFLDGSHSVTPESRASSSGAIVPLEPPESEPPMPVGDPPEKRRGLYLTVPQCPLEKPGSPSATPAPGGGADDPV
Put plainly: IonWorks screen for hCaV3.2 (T-type calcium current, voltage clamp). The conditions noted are these: IonWorks HT, HEK cells, 10 min incubation, pulse 10, 8-point curve; read-out: IW hCav3 2 IC50. The format is cell-based. The source says:
Functional evaluation of voltage-gated ion channels can be used to determine potency and/or single concentration efficacy of the Azetidinone Derivatives of the present invention. Two different methodologies can be used to measure ion currents: the lonWorks HT (Molecular Devices, Sunnyvale, Calif.) a moderate throughput voltage clamp screening platform that utilizes 96-well compound plates and conventional whole cell patch clamp for lower throughput, higher fidelity determinations.
HEK cells are transiently transfected and then selected for stable heterologous expression of different channel proteins of interest. Calcium channel cell lines expressed a resting potassium current, human Kir2.1, and the pore forming α-subunit of voltage-gated calcium channels. In the case of CaV2.1 cells the auxiliary subunit, β2a, is also expressed. Calcium channel lines that are used to generate the data will express either human CaV3.2, rat CaV3.2 or human CaV2.1. The human heart sodium channel, hNaV1.5, are stably expressed in CHO cells.
Cell lines can be grown at 37° C. in humidified incubators, equilibrated with 95% air/5% CO2. CHO cells can be grown in Ham's F-12 medium. HEK cells can be grown in DMEM. All media are supplemented with 10% heat-inactivated fetal bovine serum, penicillin, streptomycin and appropriate selection antibiotics (zeocin, geneticin and/or hygromycin). Cells are passaged when 80% confluent or less.
IonWorks Screen for hCaV3.2
The extracellular buffer for experiments using this instrument contained the following (mM) (NaCl 125, HEPES 10, KCl 5.4, CaCl2 1.8, MgCl2 1.8, 0.2 BaCl2 pH 7.35). The lonWorks uses amphotericin to gain electrical access to the cell interior. The internal solution contained (mM concentrations): 130 K-gluconate, 20 KCl, 5 HEPES-KOH (pH 7.25), 2 CaCl2, 1 MgCl2. Amphotericin added at 5 mg in 65 mL when present (in 650 μL DMSO). All internal and external solutions for this experiment contain 1% DMSO. Cells were acutely trypsinized from a T-75 flask and resuspended in extracellular buffer at a density of 2×10^5 cells/mL.
Experiments were performed at room temperature. Transmembrane potential was held at −100 mV for 5 seconds prior to running the voltage protocol. During this time leak currents were measured during a step to −110 mV (200 milliseconds). T-type calcium currents were activated with a 250 millisecond step to −20 mV. This depolarization step was repeated for a total of 10 pulses with an interpulse interval of 1 second. Data were excluded if the following acceptance criteria were not met: total resistance for the pre-compound scan>65 MΩ, pre-compound current>250 pA, post compound total resistance>50 MΩ.
T-type currents were measured as the peak inward current minus the current at the end of the 250 msec step to −20 mV. After the recoding configuration was established there was a pre-compound measurement of current amplitude. Compound was added as a 3× solution containing 1% DMSO. After incubation with compound for 10 minutes currents were measured again. The current amplitude after compound addition was divided by the pre-compound current for pulse 10 to determine the fraction of current remaining after compound addition. For each compound, 8-point concentration-effect relationships were measured with ½ log serial dilutions.
`CC[C@H](C)[C@H](NC(=O)N1CCC2(CC1)C(=O)N(c1cccc(Cl)c1)C2c1ccccn1)C(=O)OC` (stereo partly drawn) [drawing 571]: the IC50 came to 584 nM. Same read-out and setting: the value for `CC[C@H](C)[C@H](NC(=O)N1CCC2(CC1)C(=O)N(c1cccc(Cl)c1)C2c1ccccn1)C(=O)OC` (stereo partly drawn) [drawing 572] was 635 nM; that for `CC(NC(=O)N1CCC2(CC1)C(=O)N(c1cccc(Cl)c1)C2c1ccccn1)c1ccc(F)cc1` (stereo not drawn) [drawing 575] was 745 nM; that for `CC(NC(=O)N1CCC2(CC1)C(=O)N(c1cccc(Cl)c1)C2c1ccccn1)c1ccc(F)cc1` (stereo not drawn) [drawing 576] was 191 nM. Consider `N#Cc1cccc(N2C(=O)C3(CCN(C(=O)Nc4cc(F)cc(F)c4)CC3)C2c2ccccn2)c1` (stereo not drawn) [drawing 585], for which the IC50 stood at 732 nM.

`N#Cc1cccc(N2C(=O)C3(CCN(C(=O)Nc4cc(F)cc(F)c4)CC3)C2c2ccccn2)c1` (stereo not drawn) [drawing 586]: the IC50 amounted to 247 nM.

Consider `N#Cc1cccc(NC(=O)N2CCC3(CC2)C(=O)N(c2cccc(C#N)c2)C3c2ccccn2)c1` (stereo not drawn) [drawing 593], for which the IC50 is 2910 nM. The same measure, in the same setting: then `N#Cc1cccc(NC(=O)N2CCC3(CC2)C(=O)N(c2cccc(C#N)c2)C3c2ccccn2)c1` (stereo not drawn) [drawing 594], with 1170 nM. On the same count and under the same terms, the value for `C[C@H](NC(=O)N1CCC2(CC1)C(=O)N(c1cccc(Cl)c1)C2c1cccnc1)c1ccc(F)cc1` (stereo partly drawn) [drawing 611] was 225 nM.

For the compound `N#Cc1cccc(NC(=O)N2CCC3(CC2)C(=O)N(c2cccc(Cl)c2)C3c2cccnc2)c1` (stereo not drawn) [drawing 634], the IC50 was 124 nM. Still for that read-out and setting: the value for `O=C(Nc1cc(F)cc(F)c1)N1CCC2(CC1)C(=O)N(c1cccc(Cl)c1)C2c1cccnc1` (stereo not drawn) [drawing 635] was 21 nM; that for `O=C(Nc1cc(F)cc(F)c1)N1CCC2(CC1)C(=O)N(c1cccc(Cl)c1)C2c1cccnc1` (stereo not drawn) [drawing 636] was 420 nM; that for `C[C@H](NC(=O)N1CCC2(CC1)C(=O)N(c1cccc(Cl)c1)C2c1cccnc1)c1ccc(F)cc1` (stereo partly drawn) [drawing 637] was 669 nM. Turning to `CC[C@H](C)[C@H](NC(=O)N1CCC2(CC1)C(=O)N(c1cccc(Cl)c1)C2c1cccnc1)C(=O)OC` (stereo partly drawn) [drawing 640], the IC50 was found to be 880 nM. Same read-out and setting: the value for `CC[C@H](C)[C@H](NC(=O)N1CCC2(CC1)C(=O)N(c1cccc(Cl)c1)C2c1cccnc1)C(=O)OC` (stereo partly drawn) [drawing 641] was 1300 nM. Regarding `N#Cc1cccc(NC(=O)N2CCC3(CC2)C(=O)N(c2cccc(Cl)c2)C3c2cccnc2)c1` (stereo not drawn) [drawing 643], the IC50 came out at 1660 nM.
